Reference: article PMC5936891, “A focused library synthesis and cytotoxicity of quinones derived from the natural product bolinaquinone” (Royal Society Open Science, 2018)

Experiments:
[1] = test system: MCF-7 (breast carcinoma); assay: MTT in vitro growth inhibition assay, MCF-7; format: cell-based; settings: Homo sapiens; for inhibition at 25 µM: MCF7, 25 µM of drug, 72 h, read-out: Percentage of Cell Growth Inhibition MCF-7; for GI50: MCF7, 72 h drug exposure
From the text: (§1) With the desired bolinaquinone analogues 12–43 in hand, we examined their cytotoxicity against a panel of 11 tumour cell lines: HT29 (colon carcinoma), U87 and SJ-G2 (glioblastoma), MCF-7 (breast carcinoma), A2780 (ovarian carcinoma), H460 (lung carcinoma), A431 (skin carcinoma), Du145 (prostate carcinoma), BE2-C (neuroblastoma), MIA (pancreatic carcinoma), SMA (spontaneous murine astrocytoma) and a normal breast cell line (MCF10A). The inclusion of the MCF-10A cell line allowed a determination of a crude measure of relative toxicity while noting that the ultimate arbiter of toxicity requires in vivo evaluation. All analogues were initially screened at a 25 µM drug concentration.
(§2) Stock solutions were prepared as follows and stored at −20°C: drugs were stored as 40 mM solutions in DMSO. All cell lines were cultured in a humidified atmosphere 5% CO2 at 37°C. The cancer cell lines were maintained in Dulbecco's modified Eagle's medium (DMEM) (Trace Biosciences, Australia) supplemented with 10% fetal bovine serum, 10 mM sodium bicarbonate, penicillin (100 IU ml^−1), streptomycin (100 µg ml^−1) and glutamine (4 mM). The non-cancer MCF10A cell line was cultured in DMEM:F12 (1 : 1) cell culture media, 5% heat-inactivated horse serum, supplemented with penicillin (50 IU ml^−1), streptomycin (50 µg ml^−1), 20 mM Hepes, L-glutamine (2 mM), epidermal growth factor (20 ng ml^−1), hydrocortisone (500 ng ml^−1), cholera toxin (100 ng ml^−1) and insulin (10 ug ml^−1).
(§3) Cells in logarithmic growth were transferred to 96-well plates. Cytotoxicity was determined by plating cells in duplicate in 100 µl medium at a density of 2500–4000 cells per well. On day 0 (24 h after plating), when the cells were in logarithmic growth, 100 μl of medium with or without the test agent was added to each well. After 72 h, drug exposure growth inhibitory effects were evaluated using the MTT (3-[4,5-dimethylthiazol-2-yl]-2,5-diphenyl-tetrazolium bromide) assay and the absorbance read at 540 nm. Percentage growth inhibition was determined at a fixed drug concentration of 25 µM. A value of 100% is indicative of complete cell growth inhibition. Those analogues showing appreciable percentage growth inhibition underwent further dose–response analysis allowing for the calculation of a GI50 value. This value is the drug concentration at which cell growth is 50% inhibited based on the difference between the optical density values on day 0 and those at the end of drug exposure.

[2] = test system: SJ-G2 (glioblastoma); assay: MTT in vitro growth inhibition assay, SJ-G2; format: cell-based; settings: for inhibition at 25 µM: 25 µM of drug, 72 h, read-out: Percentage of Cell Growth Inhibition SJ-G2; for GI50: 72 h drug exposure
From the text: as §1, §2, §3

[3] = test system: H460 (lung carcinoma); assay: MTT in vitro growth inhibition assay, H460; format: cell-based; settings: Homo sapiens; for inhibition at 25 µM: NCI-H460, 25 µM of drug, 72 h, read-out: Percentage of Cell Growth Inhibition H460; for GI50: NCI-H460, 72 h drug exposure
From the text: as §1, §2, §3

[4] = test system: BE2-C (neuroblastoma); assay: MTT in vitro growth inhibition assay, BE2-C; format: cell-based; settings: Homo sapiens, BE(2)-C, 72 h; for inhibition at 25 µM: 25 µM of drug, read-out: Percentage of Cell Growth Inhibition BE2-C; for GI50: 72 h drug exposure
From the text: as §1, §2, §3

[5] = test system: A2780 (ovarian carcinoma); assay: MTT in vitro growth inhibition assay, A2780; format: cell-based; settings: Homo sapiens; for inhibition at 25 µM: 25 µM of drug, 72 h, read-out: Percentage of Cell Growth Inhibition A2780; for GI50: 72 h drug exposure
From the text: as §1, §2, §3

[6] = test system: U87 (glioblastoma); assay: MTT in vitro growth inhibition assay, U87; format: cell-based; settings: for inhibition at 25 µM: 25 µM of drug, 72 h, read-out: Percentage of Cell Growth Inhibition U87; for GI50: 72 h drug exposure
From the text: as §1, §2, §3

[7] = test system: MCF10A (normal breast cell line); assay: MTT in vitro growth inhibition assay, MCF10A; format: cell-based; settings: Homo sapiens, MCF-10A; for inhibition at 25 µM: 25 µM of drug, 72 h, read-out: Percentage of Cell Growth Inhibition MCF10A; for GI50: normal breast cell line, 72 h drug exposure
From the text: as §1, §2, §3

[8] = test system: Du145 (prostate carcinoma); assay: MTT in vitro growth inhibition assay, Du145; format: cell-based; settings: Homo sapiens; for inhibition at 25 µM: DU-145, 25 µM of drug, 72 h, read-out: Percentage of Cell Growth Inhibition Du145; for GI50: DU-145, 72 h, 72 h drug exposure
From the text: as §1, §2, §3

[9] = test system: SMA (spontaneous murine astrocytoma); assay: MTT in vitro growth inhibition assay, SMA; format: cell-based; settings: Mus musculus; for inhibition at 25 µM: 25 µM of drug, 72 h, read-out: Percentage of Cell Growth Inhibition SMA; for GI50: 72 h drug exposure
From the text: as §1, §2, §3

[10] = test system: MIA (pancreatic carcinoma); assay: MTT in vitro growth inhibition assay, MIA; format: cell-based; settings: for inhibition at 25 µM: 25 µM of drug, 72 h, read-out: Percentage of Cell Growth Inhibition MIA; for GI50: 72 h drug exposure
From the text: as §1, §2, §3

[11] = test system: HT29 (colon carcinoma); assay: MTT in vitro growth inhibition assay, HT29; format: cell-based; settings: Homo sapiens; for inhibition at 25 µM: HT-29, 25 µM of drug, 72 h, read-out: Percentage of Cell Growth Inhibition HT29; for GI50: HT-29, 72 h drug exposure
From the text: as §1, §2, §3

[12] = test system: A431 (skin carcinoma); assay: MTT in vitro growth inhibition assay, A431; format: cell-based; settings: Homo sapiens; for inhibition at 25 µM: A-431, 25 µM of drug, 72 h, read-out: Percentage of Cell Growth Inhibition A431; for GI50: A-431, 72 h, 72 h drug exposure
From the text: as §1, §2, §3

Structure (SMILES)	inhibition at 25 µM [1] [%]	inhibition at 25 µM [2] [%]	inhibition at 25 µM [3] [%]	melting point [°C]	inhibition at 25 µM [4] [%]	inhibition at 25 µM [5] [%]	inhibition at 25 µM [6] [%]	inhibition at 25 µM [7] [%]	inhibition at 25 µM [8] [%]	inhibition at 25 µM [9] [%]	inhibition at 25 µM [10] [%]	inhibition at 25 µM [11] [%]	inhibition at 25 µM [12] [%]	GI50 [1] [µM]	GI50 [2] [µM]	GI50 [3] [µM]	GI50 [4] [µM]	GI50 [5] [µM]	GI50 [6] [µM]	GI50 [7] [µM]	further results
COC1=C(c2ccccc2)C(=O)C(OC)=C(c2cccc3ccccc23)C1=O [compound 32, 2,5-Dimethoxy-3-(naphthalen-1-yl)-6-phenylcyclohexa-2,5-diene-1,4-dione]	22 ± 2	19 ± 3	20 ± 8	168 to 170	27 ± 15	60 ± 17	19 ± 2	58 ± 15	18 ± 4	58 ± 13	13 ± 1	15 ± 4	17 ± 2	–	–	–	–	–	–	–	–
COC1=C(c2ccc3ccccc3c2)C(=O)C(OC)=C(c2cccc3ccccc23)C1=O [compound 33, 2,5-Dimethoxy-3-(naphthalene-1-yl)-6-(naphthalene-3-yl)cyclohexa-2,5-diene-2,5-diene-1,4-dione]	> 100	92 ± 5	45 ± 2	163 to 165	81 ± 1	98 ± 0.5	43 ± 11	86 ± 3	40 ± 1	81 ± 10	72 ± 2	53 ± 2	57 ± 3	5.6 ± 0.7	14 ± 1.9	28 ± 2.7	12 ± 0.9	6.9 ± 1.2	26 ± 2.1	13 ± 2.2	GI50 [8]: 31 µM; GI50 [9]: 11 ± 0.33 µM; GI50 [10]: 15 ± 0.9 µM; GI50 [11]: 23 ± 1.2 µM; GI50 [12]: 23 ± 3.4 µM
COC1=C(c2ccc3ccccc3c2)C(=O)C(OC)=C(c2ccc(OC)cc2OC)C1=O [compound 34, 2,5-Dimethoxy-3-(2,4-dimethoxyphenyl)-6-(naphthalene-3-yl)cyclohexa-2,5-diene-1,4-dione]	> 100	83 ± 2	49 ± 9	159 to 161	> 100	100 ± 1	61 ± 4	99 ± 2	41 ± 3	98 ± 1	70 ± 1	82 ± 2	85 ± 2	6.2 ± 0.31	16	35 ± 6.9	9.6 ± 0.5	6.1 ± 0.03	22 ± 2	12 ± 2.4	GI50 [8]: 27 ± 2.5 µM; GI50 [9]: 9.7 ± 0.6 µM; GI50 [10]: 18 ± 0.33 µM; GI50 [11]: 10.2 ± 0.3 µM; GI50 [12]: 15 ± 1 µM
CCCCc1ccc(C2=C(OC)C(=O)C(c3ccc4ccccc4c3)=C(OC)C2=O)cc1 [compound 35, 2-(4-Butylphenyl)-3,6-dimethoxy-5-(naphthalene-3-yl)cyclohexa-2,5-diene-1,4-dione]	87 ± 1	67 ± 4	61 ± 3	134 to 136	61 ± 2	66 ± 1	38 ± 2	47 ± 5	56 ± 2	79 ± 5	61 ± 2	59 ± 3	49 ± 3	10 ± 0.6	16 ± 2.2	19 ± 0.6	23 ± 3.2	14 ± 2	42 ± 2.8	26 ± 4.8	GI50 [8]: 19 ± 1 µM; GI50 [9]: 8.2 ± 0.8 µM; GI50 [10]: 18 ± 1.2 µM; GI50 [11]: 21 ± 2.6 µM; GI50 [12]: 26 ± 4.8 µM
